How the values were obtained:
coxsackievirus B = conditions: in vitro, cell cultures; mechanism not defined; cited from earlier work
[1] = test system: Coxsackievirus B myocarditis; conditions: intravenous; chronic Coxsackievirus B myocarditis; 0% in placebo group; cited from earlier work
[2] = test system: Mycobacterium avium complex (MAC); assay: Case report: Mycobacterium avium complex infection of the lung; assay type: in vivo, human; conditions: before oxymatrine, added to four-drug therapy
Experimental: A person with known history of Mycobacterium avium complex (MAC) infection of the lung and bronchiectasis for several years was treated with clarithromycin, ethambutol, ciprofloxacin and rifabutin for about five years. […] Intravenous amikacin was added following right middle and left lingula lobectomy. In spite of the above therapy, sputum and repeat bronchial washing obtained by bronchoscopy grew MAC within three weeks. A computed tomography scan of the chest remained unchanged except for the post-surgical changes.
Because of persistent positive cultures despite the four drug therapies, the patient was started on oxymatrine, which they tolerated well. […] Sputum became clear in color then resolved. About two months after the start of oxymatrine, the patient had fevers, flu-like symptoms, increase in non-productive cough, bilateral uveitis and elevation of liver enzymes to 3.5 times normal values. The symptoms lasted two weeks and resolved after tapering dose of oxymatrine to 200 mg bid. Liver enzymes returned to normal within six weeks. […] The anti-MAC medications were discontinued after […] of oxymatrine therapy. The dose of oxymatrine was tapered to 100 mg tid at four and a half months of therapy and then stopped after six months of total therapy. The patient felt well at the six month follow-up.

[3] = test system: chronic enterovirus infection / chronic fatigue; assay: Case reports: treatment of chronic fatigue (Examples 2-5); assay type: in vivo, human; conditions: Example 5 patient, before oxymatrine
Experimental: A person with episodes of diarrhea while traveling to Tonga developed severe respiratory infection soon thereafter. The symptoms consisted of fevers to 105° F., night sweats, diffuse myalgia, tachycardia, fatigue, sinus congestion and cough, and unresponsiveness to antibiotics. The patient developed profound fatigue thereafter and went on total disability three months after the onset of symptoms. Initial Coxsackie B virus (CBV) 3, CVB4 and echovirus 9 antibody titers were 1:320, 1:160, 1:80 (normal <1:10), respectively.
The patient could not work for the next 18 months. They were started on oxymatrine at 300 mg twice a day (bid). After taking oxymatrine for two months, they were able to take short walks, but still exhausted after one hour of activity requiring five hour naps. At the end of three months of therapy, they started having fevers of 104-105° F. for several days with marked decrease in diffuse myalgia. […] CVB3, CVB4 and echovirus antibody three months after therapy were 1:160, 1:160 and 1:20, respectively.
A person who had recurrent episodes of debilitating fatigue became totally incapacitated after approximately 17 years. […] They went into remission but relapsed nine months later after developing a minor upper respiratory infection. They improved minimally after several months of bed rest, but was barely able to work six hours per day. They had brain fog, myalgia ( 7/10 pain) and was barely able to walk even 1-2 blocks.
Three days after taking oxymatrine at a dose of 300 mg bid, the myalgia intensified ( 10/10 pain), especially one hour after taking the pills. One week after starting oxymatrine, routine laboratory tests including CBC, chemistry panel and creatine phosphokinase (CPK) were normal. They continued having significant fatigue and myalgia for the next three weeks, but the symptoms resolved one week after stopping the medication. Mild increase in myalgia recurred three days after resuming oxymatrine, but resolved after continuing the medication for the next two weeks. The patient felt well at the end of three months with minimal discomfort in a few muscle groups.
Severe myalgia recurred after resuming vigorous exercise for three weeks while taking oxymatrine. They had to stop exercise for the two months allowing cessation of myalgia. After taking oxymatrine for six months, the patient felt well. Over the next six months after stopping the medication, the patient continuously performed heavy physical activities without significant difficulty. After developing another episode of upper respiratory symptoms, their symptoms relapsed. They have resumed oxymatrine but experienced increasing myalgia as the fatigue improved.
A person with a known history of frequent respiratory infections and vasovagal syncope developed respiratory infection, which was followed by bedridden fatigue. Enteroviral protein was detected in the stomach biopsy consistent with chronic enterovirus infection. […] After vigorous exercise, they would still have relapses of bedridden fatigue for one day but continued to work 10-12 hours per day for the next 12 months, walking two miles per day. Laboratory tests were normal while on therapy.
A person developed debilitating fatigue, sore throat, oral ulcers, vertigo, headaches and cognitive dysfunction two months after having a flu-like illness. […] Approximately four years later, the patient started taking oxymatrine. After an initial increase of gastrointestinal symptoms for the first two weeks, the patient tolerated 500 mg per day of oxymatrine.
The symptoms continued for two weeks and resolved after stopping oxymatrine. […] They continued to improve for 12 months after taking the medication.

## O=C1CCC[C@@H]2[C@H]3CCCN4CCC[C@@H](CN12)[C@@H]34 [matrine]
Coxsackievirus B
  growth inhibition of coxsackievirus B: growth inhibition
[1]
  patients with improvement of cardiac function, increase in lymphocyte number and function, and loss of viral markers: more than 90%

## gamma interferon
[2]
  benefit on persistent positive sputum culture for MAC: without significant benefit

## CC(C)[C@H](N)C(=O)OCCOCn1cnc2c(=O)[nH]c(N)nc21 [valacyclovir]
[3]
  response of fatigue and other symptoms: did not respond

Source: patent publication US8198293B2, “Oxymatrine compositions and related methods for treating and preventing chronic infectious diseases” (priority 2008, dated 2012)
